We go through 2 compounds from patent publication US7973024B2, “24-sulfoximine vitamin D3 compounds” (Cyctochroma Inc., priority 2002, dated 2011).

What is called IC50 is the point on the concentration scale where inhibition reaches its midpoint.

SMILES strings stand for the structures. A value given as a limit tells only on which side of the number the result lay.

Experiment [1] addresses T1, CYP24 (Homo sapiens, UniProt Q07973).
T1 construct: expressed in transfected cells
T1 sequence (Q07973 36-514): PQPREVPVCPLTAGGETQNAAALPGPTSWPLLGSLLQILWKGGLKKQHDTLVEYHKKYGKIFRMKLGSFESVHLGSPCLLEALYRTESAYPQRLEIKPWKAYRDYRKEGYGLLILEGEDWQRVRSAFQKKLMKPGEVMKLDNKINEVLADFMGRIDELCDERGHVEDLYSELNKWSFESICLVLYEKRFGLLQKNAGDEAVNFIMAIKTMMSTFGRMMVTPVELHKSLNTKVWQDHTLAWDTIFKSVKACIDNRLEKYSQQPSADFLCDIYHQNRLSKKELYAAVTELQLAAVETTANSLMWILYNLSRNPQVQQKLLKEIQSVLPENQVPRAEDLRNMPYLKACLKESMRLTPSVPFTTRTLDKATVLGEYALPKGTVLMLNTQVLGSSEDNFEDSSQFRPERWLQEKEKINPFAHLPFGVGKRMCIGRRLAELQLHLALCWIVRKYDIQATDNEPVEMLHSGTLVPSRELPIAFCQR
Description: CYP24 enzyme assay (induced HPK1A-ras cells). The class given is cell-based. Conditions: HPK1A-ras cells induced with 1,25(OH)2D3; [3H]-1,25(OH)2D3 substrate, 2 hour. How it is done: 1.25(OH)2D3 10^−5 M (Sigma, St. Louis, Mo.);
Preparation of 10^−5 M working solution is as follows:
Dissolve 1 mg of 1,25(OH)2D3 into 480 μl of isopropanol to make 5×10^−3 M stock solution. Store at −70° C. until needed. Aliquot 1 μl of 1.25(OH)2D3 5×10^−3 M stock solution to 499 μl of isopropanol to make 1.25(OH)2D3 10^−5 working solution. Store at −20° C. until needed. […] Induction of HPKIA-ras cells (The day before assay) • When the HPK1A-ras cells were 80-90% confluent, added 1 μL 10^−5 M 1.25(OH)2D3 to 1 mL medium in the plate (final concentration is 10^−8 M). • 2. Preparation of cell suspension • After 18 to 20 hours induction, removed the medium and washed the cell twice with PBS. Then tripsinized the cells from plate, centrifuged (2,000 rpm, 5 min) and suspended cells pellet in DMEM medium+1% BSA. • Counted the cells and adjusted cells density to 250,000/150 μL, added 150 μL cell suspension to each well in 48-well plate (including 3 wells as a no cell control, and 3 well cells without drug or inhibitor as controls). • 3. […] Kept the plate in 37° C. for 10 min. • 4. Preparation of substrate • For each ml required, added 972 μl of DMEM+1% BSA medium, 20 μl of 3H-1,25(OH)2D3, and 8 μl of 100 nM DPPD to a tube and vortexed. • 5. Incubation • Added 25 μL substrate to each well, incubated the plate at 37° C. for 2 hour. • Added 25 μL substrate to counting plate (2 well) as a total count. • 6. Lipid Extraction and Counting • Added 500 μL methanol to each well to stop the reaction, transferred them to tube. • Added 250 μL dichloromethane and vortex. • Added 250 μL dichloromethane and […] saturated KCI, and vortex. • Centrifuged at 4000 rpm for 5 min. • Transferred 100 μL of aqueous phase (upper phase) to counting plastic counting plate. Added 600 μL of scintillation fluid to each well. Counted the plate in scintillation counter. • 7. Calculation Enzyme Activity • CPM of cell control after subtraction of CPM of non-cell control (NCC) was as 100% enzyme activity.
• Dilution of test compounds • Stock 10^−3 M

Experiment [2] concerns the target T1, CYP24. Description: CYP24 enzyme assay (stable cell line V79-CYP24 cells). Type of experiment: cell-based. Conditions: [3H-1β]-1α,25(OH)2D3 20 nM, 2 hours. As for the experimental part:
1. Preparation of Cell Suspension • On the day of the assay, washed the monolayer of V79-CYP24 cells once with 1×PBS buffer and then trypsinize for 5 min at room temperature (approx. 22° C.). Added 1×PBS. Collected cells into tube, centrifuged cells (500×g, 5 min) and resuspended in DMEM+1% BSA media.
2. Cell Plating • Added 150 μl of cell suspension to appropriately labelled wells of a 48-well plate. Incubated plate for 30 minutes at 37° C. in a humidified atmosphere containing 5% CO2 for adherence of cells to wells.
3. Compound Addition • Added 25 μl of inhibitor (10^−6 to 10^−9 M) and then after 10 min added 25 μl of substrate [^3H-1β]-1α,25(OH)2D3 (20 nM) for 2 hours at 37° C. in a humidified atmosphere containing 5% CO2. Both inhibitor and substrate were prepared in DMEM with 1% BSA media in the absence and presence of 100 μM DPPD.
4. Lipid Extraction and Counting • Added 500 μL of methanol to stop the reaction. Transferred to tube. Added 250 μl of dichloromethane and vortexed. Added 250 μl of dichloromethane and 250 μl of saturated KCL and vortexed. Centrifuged at 4000 rpm for 5 min. Triplicate 100 μl aliquots of aqueous fraction were mixed with 600 μl of scintillation fluid and the radioactivity was measured using a scintillation counter. All values were normalized for background. (iii) Results.

For experiment [3], the system named is SCC-25 cells. The experiment is described as follows: [3H]-thymidine proliferation assay with SCC-25 cells. Type of experiment: cell-based. The note with it: together with calcitriol, three days, [3H]-thymidine 6 h. How it is done: 1. Preparation of Cell Suspension • When SCC-25 cells were 70-80% confluent, aspirated media. Washed the cells with 1×PBS. Trypsinized with trypsin-EDTA from the plate, collected cells from the tissue culture flask, centrifuged (500×g, 5 min) and resuspended in media.
2. Cell Plating. • Counted the cells and adjusted the cell density to 10,000/ml. Added 200 μl per well in a 96 well plate. Incubated plate for 24 h at 37° C. in a humidified atmosphere plus 5% CO2. Aspirated used media and replaced with 150 μl per well with media.
3. Compound Addition. • Added 25 μl of 1α,25(OH)2D3 (final concentration 10^−6M, 10^−7 M, 10^−8 M, M, 10^−10 M, 10^−11 M) into each designated well. Added 25 μl of substrate (final concentration 10^−7 M, 5×10^−8 M, 10^−8 M or 10^−9 M) into each designated well. Incubated plates for 3 days at 37° C. in a humidified atmosphere plus 5% CO2.
4. ^3H-Thymidine Incorporation. • Added ^3H-thymidine at 0.02 μCi per well and incubated at 37° C. in a humidified atmosphere plus 5% CO2 for 6 h.
5. Plate Harvesting. • Aspirated all media and washed cells with 1×PBS. Trypsinized cells for 30 min at 37° C. in a humidified atmosphere plus 5% CO2. Harvested cells onto a 96 well filter plate (Millipore) using a Tomtec Cell Harvestor, according to manufacturers instructions.
6. Scintillation Counting. • Added 25 μl of scintillation fluid per well. Counted the plate using a scintillation counter.

The target of experiment [4] is T2, VDR (Homo sapiens, UniProt P11473).
T2 construct: purchased Biomol
T2 sequence (P11473 1-427): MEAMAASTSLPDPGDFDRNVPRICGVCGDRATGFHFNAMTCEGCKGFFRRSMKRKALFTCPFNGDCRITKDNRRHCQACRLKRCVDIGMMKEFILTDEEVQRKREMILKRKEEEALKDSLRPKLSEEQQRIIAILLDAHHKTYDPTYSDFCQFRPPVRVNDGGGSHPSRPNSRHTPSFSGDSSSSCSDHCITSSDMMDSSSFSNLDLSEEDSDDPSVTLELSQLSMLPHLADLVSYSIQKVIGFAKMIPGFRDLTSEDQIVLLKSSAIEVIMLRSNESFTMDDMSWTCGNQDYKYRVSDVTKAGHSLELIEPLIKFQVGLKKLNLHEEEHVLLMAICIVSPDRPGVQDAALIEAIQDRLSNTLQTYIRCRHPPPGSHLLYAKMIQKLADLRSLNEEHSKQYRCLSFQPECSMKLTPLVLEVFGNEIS
The experiment is described as follows: VDR binding assay. Conditions: B50: displacement of 50 percent [3H]-1,25(OH)2D3 from human recombinant VDR. How it is done: 1. VDR 9.4 pmol/μl (human, recombinant, Biomol).
4. TEK300 • Tris-HCI 50 mM • EDTA 1.5 mM • KCI 300 mM Adjust pH to 7.4 (25° C.)
3. Preparation of 1.25(OH)2D3 and test compounds in ethanol
1 μl stock VDR in 2.5 ml TEDK300/Gelatin solution (500 μl/tube), (keep on ice)
• Label tubes according to the following chart, each in triplicate:
• Mixed all tubes via vortex and incubated at room temperature for 1 hour. Added 10 μL of 3H-1,25(OH)2D3 Working Dilution, mixed by vortex and incubated at room temperature for 1 hour 2. Sample processing • Thirty minutes before addition, put Charcoal/Dextran Solution on ice with continuous mixing. Added […] of Charcoal/Dextran Solution to each tube, mixed well and incubated on ice for 30 minutes. Centrifuged @ 2000 rpm for 10 minutes at 4° C. 3. Counting • Pipetted 100 μL of the upper, aqueous phase to a 24 well scintillation counting plate and added 600 μL scintillation fluid per well, covered and mixed well. Counted the plate using a scintillation counter for 5 min/sample. (iv) Calculations: • The amount of 1,25(OH)2D3 to displace 50 percent [^3H]-1,25(OH)2D3 from VDR was calculated as B50 for 1,25(OH)2D3. The VDR binding of other compounds was calculated as B50 relative to a value of 1 for 1,25(OH)2D3.

Experiment [5] has as its target T1, CYP24. The experiment is described as follows: In vitro test of ability to inhibit specifically CYP24 (standard protocol). The class given is cell-based. Conditions: ketoconazole as control standard.

Consider `C=C1/C(=C\C=C2/CCC[C@]3(C)[C@@H]([C@H](C)CCS(=N)(=O)c4ccccc4)CC[C@@H]23)C[C@@H](O)C[C@@H]1O` (single isomer, unassigned) [I(c)], for which the IC50 in experiment [1] was found to be 33 nM; in experiment [2] it was 20 nM. Besides, the “inhibition of proliferation of SCC-25 cells” value in experiment [3] is on record as “act to inhibit the proliferation”.

For `C=C1CC[C@H](O)C/C1=C/C=C1\CCC[C@]2(C)[C@@H]([C@H](C)CCS(=N)(=O)c3ccccc3)CC[C@@H]12` (stereo partly drawn) [I(m), 24-Phenyl Sulfoximine 1-Nor Vitamin-D3], the half-maximal inhibitory concentration (IC50) was 120 nM in experiment [2] and more than 2000 nM in experiment [4]. In experiment [5], the “selective inhibition of CYP24” value is recorded as “selectively inhibit”.
